# Data as given in patent US5015659A, “Thienylacetic acid derivatives, process for the preparation thereof, the use thereof, and pharmaceuticals containing these and the preparation thereof” (Cassella Aktiengesellschaft, priority 1989, dated 1991).
# Counter-ions that a name gives are not always drawn.
# Columns and labels:
# [1] = tested on: Ischaemia-induced amnesia in the Mongolian gerbil; test: Ischaemia-induced amnesia, passive-avoidance learning after brief bilateral cerebral ischaemia; type: in vivo; conditions: for Ischaemia-induced learning impairment, % reversal of learning impairment: immediately after the end of ischaemia; for ED50: Meriones unguiculatus, ip, i.p. immediately after the end of ischaemia (3-5 min), read-out: Dose which elicits a half-maximum (about 50%) antagonism of the learning impairment
# Method: Brief bilateral cerebral ischaemia (3-5 min) in the gerbil leads to a prolonged learning impairment in passive-avoidance learning. The learning impairment can be antagonized if the animals are treated intraperitoneally with the compounds of the general formula I immediately after the end of ischaemia. The table which follows indicates the dosages which elicit a half-maximum (about 50%) antagonism of the learning impairment. The compounds according to the invention show a pronounced superiority to the compounds of the state of the art.
# [2] = tested on: Scopolamine-induced amnesia in the mouse; test: Scopolamine-induced amnesia, passive-avoidance learning test; type: in vivo; conditions: scopolamine 3 mg/kg i.p.; for Scopolamine amnesia, % reversal of amnesia: 30 mg/kg oral pretreatment
# Method: 1) Scopolamine-induced amnesia in the mouse
# Injection of a scopolamine dose of 3 mg/kg i.p. leads to an amnesia in a passive-avoidance learning test.
# glycine receptor = test: Receptor-binding studies in vitro, rat cortex synaptosomes; conditions: for Kd: read-out: Binding to glycine receptors in the brain, Kd
smiles,measurement,setting,value
"COc1ccc(C(=O)N2CCCC2=O)cc1 [Aniracetam, reference compound]","Ischaemia-induced learning impairment, % reversal of learning impairment",[1]; 30.00 mg/kg ip,45%
same,ED50,[1],30 mg/kg
"NC(=O)CNC(C(=O)O)c1cccs1 (stereo not shown) [Example 5, 2-Thienyl-N-aminocarbonylmethylaminoacetic acid]","Scopolamine amnesia, % reversal of amnesia",[2],56%
same,"Ischaemia-induced learning impairment, % reversal of learning impairment",[1]; 1.00 mg/kg ip,51%
same,ED50,[1],1 mg/kg
"NC(C(=O)NCC(=O)O)c1cccs1 (stereo not shown) [Example 11, N-(2-Thienylaminoacetyl)glycine]","Ischaemia-induced learning impairment, % reversal of learning impairment",[1]; 1.00 mg/kg ip,54%
same,ED50,[1],1 mg/kg
same,Kd,glycine receptor,1800 nM
"Cl.NCC(=O)NC(C(=O)O)c1cccs1 (stereo not shown) [Example 9, 2-Thienyl-N-aminoacetylaminoacetic acid hydrochloride]","Ischaemia-induced learning impairment, % reversal of learning impairment",[1]; 0.10 mg/kg ip,54%
same,ED50,[1],0.1 mg/kg
same,Kd,glycine receptor,1800 nM
"NC(=O)C(NCC(=O)O)c1cccs1 (stereo not shown) [Example 8, 2-Thienyl-N-hydroxycarbonylmethylaminoacetamide hydrochloride]","Scopolamine amnesia, % reversal of amnesia",[2],71%
same,"Ischaemia-induced learning impairment, % reversal of learning impairment",[1]; 0.03 mg/kg ip,58%
same,ED50,[1],0.03 mg/kg
"NC(=O)CN1CC(O)CC1=O (stereo not shown) [Oxiracetam, reference compound]","Ischaemia-induced learning impairment, % reversal of learning impairment",[1]; 100.00 mg/kg ip,46%
same,ED50,[1],100 mg/kg
"NC(=O)CN1CCCC1=O [Piracetam, reference compound]","Scopolamine amnesia, % reversal of amnesia",[2],18%
same,antagonism of scopolamine-induced amnesia (in words),[2]; oral pretreatment,only marginal activity
same,Binding to glycine receptors in the brain (in words),glycine receptor,No specific binding
